Species on record: Rattus norvegicus
Assay: DrugMatrix - Regimen: Daily Repeat
Assay type: toxicity, organism-based, Sprague-Dawley
Parameters: regimen Daily Repeat, gender Male, age 6-8 weeks
Conditions: in vivo, po, route oral GAVAGE, vehicle 100 % SALINE; for ABSOLUTE EOSINOPHIL / ABSOLUTE LYMPHOCYTE / ABSOLUTE MONOCYTE / ABSOLUTE SEGMENTED NEUTROPHIL / BASOPHIL / EOSINOPHIL / ERYTHROCYTE COUNT / HEMATOCRIT / HEMOGLOBIN / LEUKOCYTE COUNT / LYMPHOCYTE / MEAN CORPUSCULAR HEMOGLOBIN / MEAN CORPUSCULAR HEMOGLOBIN CONCENTRATION / MEAN CORPUSCULAR VOLUME / MONOCYTE / NEUTROPHIL / NUCLEATED RED BLOOD CELLS / PLATELET COUNT / ABSOLUTE BASOPHIL: tissue Blood; for ALANINE AMINOTRANSFERASE / ALBUMIN / ALKALINE PHOSPHATASE / ASPARTATE AMINOTRANSFERASE / BLOOD UREA NITROGEN / CARBON DIOXIDE / CHLORIDE / CHOLESTEROL / CREATINE PHOSPHOKINASE / CREATININE / GLUCOSE / LACTATE DEHYDROGENASE / LIPASE / PHOSPHORUS / POTASSIUM / SODIUM / TOTAL BILIRUBIN / TOTAL PROTEIN / URIC ACID: tissue Plasma
[1] = 29 mg/kg, 120 h, dose level Low, time 5 day
[2] = 200 mg/kg, 72 h, dose level High, time 3 day
[3] = 200 mg/kg, 120 h, dose level High, time 5 day

Cc1ccnc2c1NC(=O)c1cccnc1N2C1CC1 [NEVIRAPINE]
ABSOLUTE EOSINOPHIL [1]: 0 CELLS/uL
ABSOLUTE LYMPHOCYTE [1]: 5766.33 CELLS/uL
ABSOLUTE MONOCYTE [1]: 26.67 CELLS/uL
ABSOLUTE SEGMENTED NEUTROPHIL [1]: 340.33 CELLS/uL
BASOPHIL [1]: 0%
EOSINOPHIL [1]: 0%
ERYTHROCYTE COUNT [1]: 5.58 x10E6/uL
HEMATOCRIT [1]: 33.7%
HEMOGLOBIN [1]: 13.2 G/DL
LEUKOCYTE COUNT [1]: 6.13 x10E3/uL
LYMPHOCYTE [1]: 94.33%
MEAN CORPUSCULAR HEMOGLOBIN [1]: 23.7 pg
MEAN CORPUSCULAR HEMOGLOBIN CONCENTRATION [1]: 39.2 G/DL
MEAN CORPUSCULAR VOLUME [1]: 60.4 fL
MONOCYTE [1]: 0.33%
NEUTROPHIL [1]: 5.33%
NUCLEATED RED BLOOD CELLS [1]: 0 /100WBC
PLATELET COUNT [1]: 1219 x10E3/uL
ALANINE AMINOTRANSFERASE [1]: 55.67 u/L
ALBUMIN [1]: 4.23 G/DL
ALKALINE PHOSPHATASE [1]: 280.33 u/L
ASPARTATE AMINOTRANSFERASE [1]: 82.33 u/L
BLOOD UREA NITROGEN [1]: 15.33 mg/dL
CARBON DIOXIDE [1]: 34.33 mmol/L
CHLORIDE [1]: 98.67 MEQ/L
CHOLESTEROL [1]: 74.33 mg/dL
CREATINE PHOSPHOKINASE [1]: 403.67 u/L
CREATININE [1]: 0.39 mg/dL
GLUCOSE [1]: 132.33 mg/dL
LACTATE DEHYDROGENASE [1]: 98.67 u/L
LIPASE [1]: 11 u/L
PHOSPHORUS [1]: 10.8 mg/dL
POTASSIUM [1]: 6.38 MEQ/L
SODIUM [1]: 144.43 MEQ/L
TOTAL BILIRUBIN [1]: 0.17 mg/dL
TOTAL PROTEIN [1]: 5.7 G/DL
URIC ACID [1]: 0.87 mg/dL
ABSOLUTE BASOPHIL [2]: 0 CELLS/uL
ABSOLUTE EOSINOPHIL [2]: 0 CELLS/uL
ABSOLUTE LYMPHOCYTE [2]: 4383.33 CELLS/uL
ABSOLUTE MONOCYTE [2]: 11.67 CELLS/uL
ABSOLUTE SEGMENTED NEUTROPHIL [2]: 905 CELLS/uL
BASOPHIL [2]: 0%
EOSINOPHIL [2]: 0%
ERYTHROCYTE COUNT [2]: 5.28 x10E6/uL
HEMATOCRIT [2]: 32.53%
HEMOGLOBIN [2]: 12.53 G/DL
LEUKOCYTE COUNT [2]: 5.3 x10E3/uL
LYMPHOCYTE [2]: 83%
MEAN CORPUSCULAR HEMOGLOBIN [2]: 23.9 pg
MEAN CORPUSCULAR HEMOGLOBIN CONCENTRATION [2]: 38.7 G/DL
MEAN CORPUSCULAR VOLUME [2]: 61.8 fL
MONOCYTE [2]: 0.33%
NEUTROPHIL [2]: 16.67%
NUCLEATED RED BLOOD CELLS [2]: 0.67 /100WBC
PLATELET COUNT [2]: 1104 x10E3/uL
ALANINE AMINOTRANSFERASE [2]: 63 u/L
ALBUMIN [2]: 4.4 G/DL
ALKALINE PHOSPHATASE [2]: 260.67 u/L
ASPARTATE AMINOTRANSFERASE [2]: 84.67 u/L
BLOOD UREA NITROGEN [2]: 16.33 mg/dL
CARBON DIOXIDE [2]: 27.67 mmol/L
CHLORIDE [2]: 101.67 MEQ/L
CHOLESTEROL [2]: 85.33 mg/dL
CREATINE PHOSPHOKINASE [2]: 227 u/L
CREATININE [2]: 0.11 mg/dL
GLUCOSE [2]: 145 mg/dL
LACTATE DEHYDROGENASE [2]: 139.67 u/L
LIPASE [2]: 12.33 u/L
PHOSPHORUS [2]: 10.8 mg/dL
POTASSIUM [2]: 5.63 MEQ/L
SODIUM [2]: 147 MEQ/L
TOTAL BILIRUBIN [2]: 0.13 mg/dL
TOTAL PROTEIN [2]: 5.9 G/DL
URIC ACID [2]: 1.03 mg/dL
ABSOLUTE BASOPHIL [3]: 0 CELLS/uL
ABSOLUTE EOSINOPHIL [3]: 0 CELLS/uL
ABSOLUTE LYMPHOCYTE [3]: 5735 CELLS/uL
ABSOLUTE MONOCYTE [3]: 88 CELLS/uL
ABSOLUTE SEGMENTED NEUTROPHIL [3]: 443.67 CELLS/uL
BASOPHIL [3]: 0%
EOSINOPHIL [3]: 0%
ERYTHROCYTE COUNT [3]: 5.22 x10E6/uL
HEMATOCRIT [3]: 33.87%
HEMOGLOBIN [3]: 13.47 G/DL
LEUKOCYTE COUNT [3]: 6.27 x10E3/uL
LYMPHOCYTE [3]: 91.67%
MEAN CORPUSCULAR HEMOGLOBIN [3]: 25.83 pg
MEAN CORPUSCULAR HEMOGLOBIN CONCENTRATION [3]: 39.8 G/DL
MEAN CORPUSCULAR VOLUME [3]: 64.77 fL
MONOCYTE [3]: 1.33%
NEUTROPHIL [3]: 7%
NUCLEATED RED BLOOD CELLS [3]: 0.67 /100WBC
PLATELET COUNT [3]: 1370.67 x10E3/uL
ALANINE AMINOTRANSFERASE [3]: 55.67 u/L
ALBUMIN [3]: 4.03 G/DL
ALKALINE PHOSPHATASE [3]: 286 u/L
ASPARTATE AMINOTRANSFERASE [3]: 87 u/L
BLOOD UREA NITROGEN [3]: 13 mg/dL
CARBON DIOXIDE [3]: 33.67 mmol/L
CHLORIDE [3]: 99 MEQ/L
CHOLESTEROL [3]: 89.33 mg/dL
CREATINE PHOSPHOKINASE [3]: 578.67 u/L
CREATININE [3]: 0.38 mg/dL
GLUCOSE [3]: 136 mg/dL
LACTATE DEHYDROGENASE [3]: 142 u/L
LIPASE [3]: 10.33 u/L
PHOSPHORUS [3]: 10.57 mg/dL
POTASSIUM [3]: 6.07 MEQ/L
SODIUM [3]: 146.23 MEQ/L
TOTAL BILIRUBIN [3]: 0.13 mg/dL
TOTAL PROTEIN [3]: 6.13 G/DL
URIC ACID [3]: 0.63 mg/dL
